Laboratory results taken from patent publication US11414424B2, “Cardiac sarcomere inhibitors” (Cytokinetics, Inc., priority 2018, dated 2022).

Each molecule was assayed on bovine cardiac myofibrils (assay: Myofibril assay: PK/LDH-coupled steady-state ATPase activity of skinned bovine cardiac myofibrils). Settings: Ca2+ activating to 75% of maximal rate.
Type: biochemical
Summary of the method: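 Steady-state ATPase of detergent-skinned bovine left-ventricular myofibrils (1 mg/mL), PK/LDH-coupled NADH read at 340 nm, in PIPES/MgCl2 buffer pH 6.8 with 50 μM ATP, 0.6 mM EGTA and CaCl2 set for 50% or 75% activation. Inhibition of activity measured.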

Structure (SMILES) | CDMF75 IC15 [µM]
CC(C)N1CC(=O)N(Cc2ccc(C(F)(F)F)cc2)C2(CCN(c3cc[nH]c(=O)c3)C2)C1=O (centres unmarked) [Compound 76, 9-isopropyl-2-(2-oxo-1,2-dihydropyridin-4-yl)-6-(4-(trifluoromethyl)benzyl)-2,6,9-triazaspiro[4.5]decane-7,10-dione] | 2.2
Cc1cc(N2CCC3(C2)C(=O)N(C(C)C)CC(=O)N3Cc2ccc(C(F)(F)F)cc2)cc(C)n1 (centres unmarked) [Compound 77, 2-(2,6-dimethylpyridin-4-yl)-9-isopropyl-6-(4-(trifluoromethyl)benzyl)-2,6,9-triazaspiro[4.5]-decane-7,10-dione] | 13.0
CC(C)N1CC(=O)N(Cc2ccc(Cl)cc2)C2(CCN(c3cnn(C)c3)C2)C1=O (centres unmarked) [Compound 78, 6-(4-chlorobenzyl)-9-isopropyl-2-(1-methyl-1H-pyrazol-4-yl)-2,6,9-triazaspiro[4.5]decane-7,10-dione] | 4.1
CC(C)N1CC(=O)N(Cc2ccc(Cl)cc2)C2(CCN(c3cccnn3)C2)C1=O (centres unmarked) [Compound 79, 6-(4-chlorobenzyl)-9-isopropyl-2-(pyridazin-3-yl)-2,6,9-triazaspiro[4.5]-decane-7,10-dione] | 3.8
CC(C)N1CC(=O)N(Cc2ccc(Cl)cc2)C2(CCN(c3ccn(C)c(=O)c3)C2)C1=O (centres unmarked) [Compound 80, 6-(4-chlorobenzyl)-9-isopropyl-2-(1-methyl-2-oxo-1,2-dihydropyridin-4-yl)-2,6,9-triazaspiro-[4.5]decane-7,10-dione] | 1.7
CC(C)N1CC(=O)N(Cc2ccc(Cl)cc2)C2(CCN(c3cc[nH]c(=O)c3)C2)C1=O (centres unmarked) [Compound 81, 6-(4-chlorobenzyl)-9-isopropyl-2-(2-oxo-1,2-dihydropyridin-4-yl)-2,6,9-triazaspiro[4.5]decane-7,10-dione] | 1.4
CCN1CC(=O)N(Cc2ccc(Cl)cc2)C2(CCN(c3ccccn3)C2)C1=O (centres unmarked) [Compound 82, 6-(4-chlorobenzyl)-9-ethyl-2-(pyridin-2-yl)-2,6,9-triazaspiro[4.5]decane-7,10-dione] | 8.1
O=C1CN(C2CCCC2)C(=O)C2(CCN(c3ccccn3)C2)N1Cc1ccc(Cl)cc1 (centres unmarked) [Compound 83, 6-(4-chlorobenzyl)-9-cyclopentyl-2-(pyridin-2-yl)-2,6,9-triazaspiro[4.5]-decane-7,10-dione] | 1.3
CC(C)CN1CC(=O)N(Cc2ccc(Cl)cc2)C2(CCN(c3ccccn3)C2)C1=O (centres unmarked) [Compound 84, 6-(4-chlorobenzyl)-9-isobutyl-2-(pyridin-2-yl)-2,6,9-triazaspiro[4.5]-decane-7,10-dione] | 4.0
CC1(N2CC(=O)N(Cc3ccc(Cl)cc3)C3(CCN(c4ccccn4)C3)C2=O)CC1 (centres unmarked) [Compound 85, 6-(4-chlorobenzyl)-9-(1-methylcyclopropyl)-2-(pyridin-2-yl)-2,6,9-triazaspiro[4.5]decane-7,10-dione] | 14.3
COCC(C)N1CC(=O)N(Cc2ccc(Cl)cc2)C2(CCN(c3ccccn3)C2)C1=O (centres unmarked) [Compound 86, 6-(4-chlorobenzyl)-9-(1-methoxypropan-2-yl)-2-(pyridin-2-yl)-2,6,9-triazaspiro[4.5]decane-7,10-dione] | 8.6
COc1cc(N2CCC3(C2)C(=O)N(C(C)C)CC(=O)N3Cc2ccc(Cl)cc2)ccn1 (centres unmarked) [Compound 87, 6-(4-chlorobenzyl)-9-isopropyl-2-(2-methoxypyridin-4-yl)-2,6,9-triazaspiro[4.5]-decane-7,10-dione] | 1.9
CC(C)N1CC(=O)N(Cc2ccc(C(F)(F)F)cc2)C2(CCN(c3cc(C#N)ccn3)C2)C1=O (centres unmarked) [Compound 88, 2-(9-isopropyl-7,10-dioxo-6-(4-(trifluoromethyl)-benzyl)-2,6,9-triazaspiro[4.5]decan-2-yl)isonicotinonitrile] | 4.0
CC(C)N1CC(=O)N(Cc2ccc(C(F)(F)F)cc2)C2(CCN(c3cc(C(N)=O)ccn3)C2)C1=O (centres unmarked) [Compound 89, 2-(9-isopropyl-7,10-dioxo-6-(4-(trifluoromethyl)-benzyl)-2,6,9-triazaspiro[4.5]decan-2-yl)isonicotinamide] | 3.3
CC(C)N1CC(=O)N(Cc2ccc(Cl)c(Cl)c2)C2(CCN(c3ccc(C#N)cn3)C2)C1=O (centres unmarked) [Compound 90, 6-(6-(3,4-dichlorobenzyl)-9-isopropyl-7,10-dioxo-2,6,9-triazaspiro[4.5]-decan-2-yl)nicotinonitrile] | 1.7
CC(C)N1CC(=O)N(Cc2ccc(Cl)c(Cl)c2)C2(CCN(c3ccc(C(N)=O)cn3)C2)C1=O (centres unmarked) [Compound 91, 6-(6-(3,4-dichlorobenzyl)-9-isopropyl-7,10-dioxo-2,6,9-triazaspiro[4.5]decan-2-yl)nicotinamide] | 1.1

Structure (SMILES) | CDMF75 IC15 [µM]
CC(C)N1CC(=O)N(Cc2ccc(Cl)cc2)C2(CCN(c3ccc(F)cn3)C2)C1=O (centres unmarked) [Compound 92, 6-(4-chlorobenzyl)-2-(5-fluoropyridin-2-yl)-9-isopropyl-2,6,9-triazaspiro[4.5]decane-7,10-dione] | 1.0
O=C1CN([C@@H]2CCOC2)C(=O)C2(CCN(c3ccccn3)C2)N1Cc1ccc(Cl)cc1 (stereo partly drawn) [Compound 93, 6-(4-chlorobenzyl)-2-(pyridin-2-yl)-9-((R)-tetrahydrofuran-3-yl)-2,6,9-triazaspiro-[4.5]decane-7,10-dione] | 19.7
O=C1CN([C@H]2CCOC2)C(=O)C2(CCN(c3ccccn3)C2)N1Cc1ccc(Cl)cc1 (stereo partly drawn) [Compound 94, 6-(4-chlorobenzyl)-2-(pyridin-2-yl)-9-((S)-tetra-hydrofuran-3-yl)-2,6,9-triazaspiro[4.5]decane-7,10-dione] | 36.1
CC(C)N1CC(=O)N(Cc2ccc(Cl)cc2)C2(CCN(c3cc(C#N)ccn3)C2)C1=O (centres unmarked) [Compound 95, 2-(6-(4-chlorobenzyl)-9-isopropyl-7,10-dioxo-2,6,9-triazaspiro[4.5]decan-2-yl)isonicotinonitrile] | 5.0
CC(C)N1CC(=O)N(Cc2ccc(Cl)cc2)C2(CCN(c3ccc(C#N)cn3)C2)C1=O (centres unmarked) [Compound 96, 6-(6-(4-chlorobenzyl)-9-isopropyl-7,10-dioxo-2,6,9-triazaspiro[4.5]decan-2-yl)nicotinonitrile] | 4.5
CC(C)N1CC(=O)N(Cc2ccc(Cl)cc2)C2(CCN(c3cc(C(N)=O)ccn3)C2)C1=O (centres unmarked) [Compound 97, 2-(6-(4-chlorobenzyl)-9-isopropyl-7,10-dioxo-2,6,9-triazaspiro[4.5]decan-2-yl)isonicotinamide] | 3.1
CC(C)N1CC(=O)N(Cc2ccc(Cl)cc2)C2(CCN(c3ccc(C(N)=O)cn3)C2)C1=O (centres unmarked) [Compound 98, 6-(6-(4-chlorobenzyl)-9-isopropyl-7,10-dioxo-2,6,9-triazaspiro[4.5]decan-2-yl)nicotinamide] | 2.4
CC(C)N1CC(=O)N(Cc2ccc(C(F)(F)F)cc2)C2(CCN(C(N)=O)C2)C1=O (centres unmarked) [Compound 107, 9-isopropyl-7,10-dioxo-6-(4-(trifluoromethyl)benzyl)-2,6,9-triazaspiro[4.5]decane-2-carboxamide] | 12.7
CC(C)N1CC(=O)N(Cc2ccc(C(F)(F)F)cc2)C2(CCN(C(=O)Nc3ccccc3)C2)C1=O (centres unmarked) [Compound 109, 9-isopropyl-7,10-dioxo-N-phenyl-6-(4-(trifluoro-methyl)benzyl)-2,6,9-triazaspiro[4.5]decane-2-carboxamide] | 8.3
COC(=O)N1CCC2(C1)C(=O)N(C(C)C)CC(=O)N2Cc1ccc(C(F)(F)F)cc1 (centres unmarked) [Compound 110, methyl 9-isopropyl-7,10-dioxo-6-(4-(trifluoro-methyl)benzyl)-2,6,9-triazaspiro[4.5]decane-2-carboxylate] | 34.4
CC(C)N1CC(=O)N(Cc2ccc(C(F)(F)F)cc2)C2(CCN(C(=O)Nc3ccncc3)C2)C1=O (centres unmarked) [Compound 111, 9-isopropyl-7,10-dioxo-N-(pyridin-4-yl)-6-(4-(trifluoromethyl)benzyl)-2,6,9-triazaspiro[4.5]-decane-2-carboxamide] | 19.8
CC(C)N1CC(=O)N(Cc2ccc(C(F)(F)F)cc2)C2(CCN(C(=O)NC(C)(C)C)C2)C1=O (centres unmarked) [Compound 112, N-(tert-butyl)-9-isopropyl-7,10-dioxo-6-(4-(trifluoromethyl)benzyl)-2,6,9-triazaspiro[4.5]-decane-2-carboxamide] | 33.0
CC(C)N1CC(=O)N(Cc2ccc(C(F)(F)F)cc2)C2(CCN(C(=O)Nc3cccnc3)C2)C1=O (centres unmarked) [Compound 113, 9-isopropyl-7,10-dioxo-N-(pyridin-3-yl)-6-(4-(trifluoromethyl)benzyl)-2,6,9-triazaspiro[4.5]-decane-2-carboxamide] | 18.5
CC(C)N1CC(=O)N(Cc2ccc(C(F)(F)F)cc2)C2(CCN(C(=O)Nc3cnn(C)c3)C2)C1=O (centres unmarked) [Compound 114, 9-isopropyl-N-(1-methyl-1H-pyrazol-4-yl)-7,10-dioxo-6-(4-(trifluoromethyl)benzyl)-2,6,9-triazaspiro[4.5]decane-2-carboxamide] | 7.9
CC(C)N1CC(=O)N(Cc2ccc(C(F)(F)F)cc2)C2(CCN(C(=O)Nc3ccc(F)cc3)C2)C1=O (centres unmarked) [Compound 115, N-(4-fluorophenyl)-9-isopropyl-7,10-dioxo-6-(4-(trifluoromethyl)benzyl)-2,6,9-triazaspiro[4.5]decane-2-carboxamide] | 10.2
CCNC(=O)N1CCC2(C1)C(=O)N(C(C)C)CC(=O)N2Cc1ccc(C(F)(F)F)cc1 (centres unmarked) [Compound 116, N-ethyl-9-isopropyl-7,10-dioxo-6-(4-(trifluoromethyl)benzyl)-2,6,9-triazaspiro[4.5] decane-2-carboxamide] | 7.2
